Inconclusive results and toxic doses are left out. Cut-off read from the data, not from the text of the source: active = T/C of 150% or more; inactive = T/C below 125%.
Test system: L1210 leukemia ip in BDF1 mice, survival T/C
Experiment: NCI In Vivo Anticancer Drug Screen. Data for tumor model L1210 Leukemia (intraperitoneal) in B6D2F1 (BDF1) mice
Conditions: endpoint: mean survival time, higher = longer survival
How it was run: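 Antitumor effect is assessed in tumor-bearing animals. Survival in the compound arm is compared with a vehicle-dosed control arm and expressed as their quotient.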

[1] = dose: 100.0 mg/kg/injection, schedule: Q01DX001 (ip), vehicle: other
[2] = dose: 200.0 mg/kg/injection, schedule: Q01DX001 (ip), vehicle: other
[3] = dose: 400.0 mg/kg/injection, schedule: Q01DX001 (ip), vehicle: other
[4] = dose: 100.0 mg/kg/injection, schedule: Q01DX009 (ip), vehicle: Klucel (hydroxypropylcellulose) (HPC)
[5] = dose: 100.0 mg/kg/injection, schedule: Q04DX003 (ip), vehicle: Klucel (hydroxypropylcellulose) (HPC)
[6] = dose: 200.0 mg/kg/injection, schedule: Q01DX009 (ip), vehicle: Klucel (hydroxypropylcellulose) (HPC)
[7] = dose: 200.0 mg/kg/injection, schedule: Q04DX003 (ip), vehicle: Klucel (hydroxypropylcellulose) (HPC)
[8] = dose: 400.0 mg/kg/injection, schedule: Q04DX003 (ip), vehicle: Klucel (hydroxypropylcellulose) (HPC)
[9] = dose: 100.0 mg/kg/injection, schedule: Q04DX003 (ip), vehicle: saline with Tween-80
[10] = dose: 200.0 mg/kg/injection, schedule: Q04DX003 (ip), vehicle: saline with Tween-80
[11] = dose: 400.0 mg/kg/injection, schedule: Q04DX003 (ip), vehicle: saline with Tween-80
[12] = dose: 100.0 mg/kg/injection, schedule: Q01DX001 (ip), vehicle: Klucel (hydroxypropylcellulose) (HPC)
[13] = dose: 200.0 mg/kg/injection, schedule: Q01DX001 (ip), vehicle: Klucel (hydroxypropylcellulose) (HPC)
[14] = dose: 400.0 mg/kg/injection, schedule: Q01DX001 (ip), vehicle: Klucel (hydroxypropylcellulose) (HPC)
[15] = dose: 100.0 mg/kg/injection, schedule: Q01DX009 (ip), vehicle: saline
[16] = dose: 200.0 mg/kg/injection, schedule: Q01DX009 (ip), vehicle: saline
[17] = dose: 100.0 mg/kg/injection, schedule: Q01DX001 (ip), vehicle: saline
[18] = dose: 200.0 mg/kg/injection, schedule: Q01DX001 (ip), vehicle: saline
[19] = dose: 400.0 mg/kg/injection, schedule: Q01DX001 (ip), vehicle: saline
[20] = dose: 100.0 mg/kg/injection, schedule: Q01DX009 (ip), vehicle: saline with Tween-80
[21] = dose: 200.0 mg/kg/injection, schedule: Q01DX009 (ip), vehicle: saline with Tween-80
[22] = dose: 400.0 mg/kg/injection, schedule: Q01DX009 (ip), vehicle: saline with Tween-80
[23] = dose: 400.0 mg/kg/injection, schedule: Q01DX009 (ip), vehicle: Klucel (hydroxypropylcellulose) (HPC)

Measured: T/C

O=C1CCN2CCCc3cccc1c32
inactive: [1] 100 % of control | [2] 97 % of control | [3] 102 % of control

O=C(O)c1c(Cl)c(Cl)c(Cl)c(Cl)c1C(=O)Nc1cccc(C(F)(F)F)c1
inactive: [4] 100 % of control | [5] 94 % of control | [6] 97 % of control | [7] 100 % of control | [8] 105 % of control

C=CC1CCN(CCn2cc(C)c(=O)[nH]c2=O)CC1
inactive: [9] 101 % of control | [10] 107 % of control | [11] 101 % of control

N=C(N)c1cccc(OCc2ccccc2)c1
inactive: [12] 90 % of control | [13] 94 % of control | [14] 94 % of control

CCN=C(N)c1ccc(N=C(N)c2cccc(C(N)=Nc3ccc(C(N)=NCC)cc3)c2)cc1
inactive: dose: 3.75 mg/kg/injection, schedule: Q01DX Z (ip), vehicle: saline 104 % of control | dose: 15.0 mg/kg/injection, schedule: Q01DX Z (ip), vehicle: saline 120 % of control

[N-]=[N+]=CS(=O)(=O)c1ccccc1-c1ccccc1
inactive: [5] 104 % of control | [7] 103 % of control | [8] 95 % of control

O=C(O)CCC(NC(=O)OCc1ccccc1)C(=O)NC(Cc1ccccc1)C(=O)O (configuration not stated)
inactive: [9] 102 % of control | [10] 101 % of control | [11] 101 % of control

O=C(c1ccccc1)C(O)(c1ccccc1)C1CCCC/C1=N\N(c1ccccc1)c1ccccc1 (configuration not stated)
inactive: [9] 92 % of control | [10] 96 % of control | [11] 94 % of control

NC(=O)N/N=C1\CC2CC1C1CCCC21 (configuration not stated)
inactive: dose: 100.0 mg/kg/injection, schedule: Q04DX003 (ip), vehicle: other 104 % of control | dose: 200.0 mg/kg/injection, schedule: Q04DX003 (ip), vehicle: other 98 % of control | dose: 400.0 mg/kg/injection, schedule: Q04DX003 (ip), vehicle: other 94 % of control

Cc1ccc(NS(=O)(=O)c2ccc([N+](=O)[O-])cc2)cc1
inactive: [9] 103 % of control | [10] 89 % of control | [11] 89 % of control

CNC(=S)n1cncn1
inactive: [15] 91 % of control | [16] 108 % of control | dose: 400.0 mg/kg/injection, schedule: Q01DX009 (ip), vehicle: saline 92 % of control

BrCC(CBr)(CBr)CBr
inactive: [15] 103 % of control | dose: 100.0 mg/kg/injection, schedule: Q04DX003 (ip), vehicle: saline 93 % of control | [16] 97 % of control | dose: 200.0 mg/kg/injection, schedule: Q04DX003 (ip), vehicle: saline 100 % of control | dose: 400.0 mg/kg/injection, schedule: Q04DX003 (ip), vehicle: saline 101 % of control

O=C(O)CC(C[N+](=O)[O-])C(F)(F)C(F)(F)C(F)(F)F (configuration not stated)
inactive: [17] 97 % of control | [18] 112 % of control | [19] 101 % of control

O=C1C[C@H]2CCCC[C@@H]2O1
inactive: dose: 75.0 mg/kg/injection, schedule: Q01DX001 (ip), vehicle: other 107 % of control | dose: 150.0 mg/kg/injection, schedule: Q01DX001 (ip), vehicle: other 105 % of control | dose: 300.0 mg/kg/injection, schedule: Q01DX001 (ip), vehicle: other 102 % of control

NC(=O)c1nc(-c2ccccc2)c(-c2ccccc2)[nH]c1=O
inactive: [20] 104 % of control | [21] 95 % of control | [22] 96 % of control

CC(=O)COc1ccccc1-c1ccccc1
inactive: [20] 97 % of control | [21] 101 % of control | [22] 100 % of control

COc1cc(Br)c(CC2c3cc(OCc4ccccc4)c(OC)cc3CCN2C)cc1OC (configuration not stated)
inactive: dose: 100.0 mg/kg/injection, schedule: Q04DX003 (ip), vehicle: acetone 112 % of control

O=[N+]([O-])c1cc(Br)c(Br)cc1Br
inactive: [12] 106 % of control | [4] 97 % of control | [13] 101 % of control | [6] 96 % of control | [14] 101 % of control

O=c1cc(C2CCCCC2)c2ccccc2[nH]1
inactive: dose: 100.0 mg/kg/injection, schedule: Q04DX003 (ip), vehicle: gum acacia 91 % of control | dose: 200.0 mg/kg/injection, schedule: Q04DX003 (ip), vehicle: gum acacia 97 % of control | dose: 400.0 mg/kg/injection, schedule: Q04DX003 (ip), vehicle: gum acacia 91 % of control

O=C(COc1ccc([N+](=O)[O-])cc1)Nc1ccc(S(=O)(=O)F)cc1
inactive: [17] 103 % of control | [18] 107 % of control | [19] 103 % of control

COc1ccc(/C=C/c2cc[n+](C)cc2)cc1
inactive: dose: 12.5 mg/kg/injection, schedule: Q04DX003 (ip), vehicle: saline with Tween-80 97 % of control | dose: 25.0 mg/kg/injection, schedule: Q04DX003 (ip), vehicle: saline with Tween-80 94 % of control | dose: 50.0 mg/kg/injection, schedule: Q04DX003 (ip), vehicle: saline with Tween-80 94 % of control

C=C(Br)CNC(=O)Nc1ccccn1
inactive: [4] 93 % of control | [6] 96 % of control

CCCCCCCC/C=C\CCCCCCCCOC(N)=O
inactive: dose: 50.0 mg/kg/injection, schedule: Q01DX009 (ip), vehicle: other 96 % of control | dose: 100.0 mg/kg/injection, schedule: Q01DX009 (ip), vehicle: other 94 % of control | [9] 100 % of control | dose: 200.0 mg/kg/injection, schedule: Q01DX009 (ip), vehicle: other 89 % of control | [10] 95 % of control

Oc1[nH]c(=S)sc1/C=C1\C=NN=N1
inactive: [1] 108 % of control | [2] 97 % of control | [3] 101 % of control

COc1cc(C(=O)O)c2c(c1C)OC(=O)c1c(C)cc(O)c(C=O)c1O2
inactive: dose: 8.0 mg/kg/injection, schedule: Q01DX Z (ip), vehicle: saline 91 % of control | dose: 16.0 mg/kg/injection, schedule: Q01DX Z (ip), vehicle: saline 102 % of control | dose: 32.0 mg/kg/injection, schedule: Q01DX Z (ip), vehicle: saline 100 % of control | dose: 40.0 mg/kg/injection, schedule: Q04DX003 (ip), vehicle: Klucel (hydroxypropylcellulose) (HPC) 97 % of control | dose: 64.0 mg/kg/injection, schedule: Q01DX Z (ip), vehicle: saline 111 % of control | dose: 80.0 mg/kg/injection, schedule: Q04DX003 (ip), vehicle: Klucel (hydroxypropylcellulose) (HPC) 107 % of control | dose: 160.0 mg/kg/injection, schedule: Q04DX003 (ip), vehicle: Klucel (hydroxypropylcellulose) (HPC) 107 % of control

O=C(O)c1cc2ccccc2c(N=Nc2ccc(S(=O)(=O)N(CCCl)CCCl)cc2)c1O
inactive: [4] 113 % of control | [6] 103 % of control | [23] 111 % of control

COc1ccc(C(=O)CC(=O)CC(=O)c2ccccc2)cc1
inactive: [4] 117 % of control | [5] 107 % of control | [6] 102 % of control | [7] 96 % of control | [23] 96 % of control | [8] 105 % of control
